{
  "source": "paper PMC6576746",
  "about": "“Rational discovery of dual-indication multi-target PDE/Kinase inhibitor for precision anti-cancer therapy using structural systems pharmacology” (PLoS Computational Biology, 2019)",
  "assay_in_all_cases": "cells",
  "parameters_in_all_cases": "species or system panel of human cancer cell lines; Eurofins OncoPanel proliferation; nuclei count by high-content fluorescence imaging, 10-point dose response",
  "key": {"[1]": {"system": "A-704", "conditions": "Homo sapiens, A704, 72 h, cell count, 3 days", "outline": "(§1)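 Cells in RPMI 1640/10% FBS or special medium received compound the day after seeding, with a time-zero plate; 3-day incubation at 37°C, 5% CO2. Nuclei imaged by fluorescence microscopy; 10 half-log doses from 100 μM, 0.1% DMSO. EC50, IC50, GI50 and activity area (0–10) from curve fits.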"}, "[2]": {"system": "SW982", "conditions": "Homo sapiens, SW982, 72 h, cell count, 3 days", "outline": "as §1"}, "[3]": {"system": "HT-29", "conditions": "Homo sapiens, HT-29, 72 h, cell count, 3 days", "outline": "as §1"}, "[4]": {"system": "M059J", "conditions": "Homo sapiens, M059J, 72 h, cell count, 3 days", "outline": "as §1"}, "[5]": {"system": "MG-63", "conditions": "Homo sapiens, MG-63, 72 h, cell count, 3 days", "outline": "as §1"}, "[6]": {"system": "Hs 729", "conditions": "72 h, cell count, 3 days", "outline": "as §1"}, "[7]": {"system": "WiDr", "conditions": "Homo sapiens, WiDr, 72 h, cell count, 3 days", "outline": "as §1"}, "[8]": {"system": "HPAF-II", "conditions": "Homo sapiens, HPAF-II, 72 h, cell count, 3 days", "outline": "as §1"}, "[9]": {"system": "SU-DHL-8", "conditions": "Homo sapiens, SU-DHL-8, 72 h, cell count, 3 days", "outline": "as §1"}, "[10]": {"system": "DOHH-2", "conditions": "Homo sapiens, DOHH-2, 72 h, cell count, 3 days", "outline": "as §1"}, "[11]": {"system": "SW48", "conditions": "Homo sapiens, SW48, 72 h, cell count, 3 days", "outline": "as §1"}, "[12]": {"system": "SW403", "conditions": "Homo sapiens, SW-403, 72 h, cell count, 3 days", "outline": "as §1"}, "[13]": {"system": "BFTC-905", "conditions": "Homo sapiens, BFTC-905, 72 h, cell count, 3 days", "outline": "as §1"}, "[14]": {"system": "GA-10", "conditions": "Homo sapiens, GA-10, 72 h, cell count, 3 days", "outline": "as §1"}, "[15]": {"conditions": "50% of maximum possible response"}},
  "data": [
    {"molecule": "C[C@@H]1CC(=O)NN=C1c1ccc(NN=C(C#N)C#N)cc1", "note": "[levosimendan]", "values": [
      {"measurement": "IC50", "setting": "[1]; [15]", "result": "> 100", "unit": "µM"},
      {"measurement": "GI50", "setting": "[1]; corrected for time zero", "result": 64.7, "unit": "µM"},
      {"measurement": "EC50", "setting": "[1]; curve inflection point", "result": "> 100", "unit": "µM"},
      {"measurement": "IC50", "setting": "[2]; [15]", "result": 43.7, "unit": "µM"},
      {"measurement": "GI50", "setting": "[2]; corrected for time zero", "result": 31.3, "unit": "µM"},
      {"measurement": "EC50", "setting": "[2]; curve inflection point", "result": 43.7, "unit": "µM"},
      {"measurement": "IC50", "setting": "[3]; [15]", "result": "> 100", "unit": "µM"},
      {"measurement": "GI50", "setting": "[3]; corrected for time zero", "result": 82.7, "unit": "µM"},
      {"measurement": "EC50", "setting": "[3]; curve inflection point", "result": "> 100", "unit": "µM"},
      {"measurement": "IC50", "setting": "[4]; [15]", "result": 51.5, "unit": "µM"},
      {"measurement": "GI50", "setting": "[4]; corrected for time zero", "result": 38.5, "unit": "µM"},
      {"measurement": "EC50", "setting": "[4]; curve inflection point", "result": 48.8, "unit": "µM"},
      {"measurement": "IC50", "setting": "[5]; [15]", "result": 19.5, "unit": "µM"},
      {"measurement": "GI50", "setting": "[5]; corrected for time zero", "result": 14.2, "unit": "µM"},
      {"measurement": "EC50", "setting": "[5]; curve inflection point", "result": 16.9, "unit": "µM"},
      {"measurement": "IC50", "setting": "[6]; [15]", "result": "> 100", "unit": "µM"},
      {"measurement": "GI50", "setting": "[6]; corrected for time zero", "result": 79.3, "unit": "µM"},
      {"measurement": "EC50", "setting": "[6]; curve inflection point", "result": "> 100", "unit": "µM"},
      {"measurement": "IC50", "setting": "[7]; [15]", "result": 77.6, "unit": "µM"},
      {"measurement": "GI50", "setting": "[7]; corrected for time zero", "result": 70.6, "unit": "µM"},
      {"measurement": "EC50", "setting": "[7]; curve inflection point", "result": 77.6, "unit": "µM"},
      {"measurement": "IC50", "setting": "[8]; [15]", "result": 65.8, "unit": "µM"},
      {"measurement": "GI50", "setting": "[8]; corrected for time zero", "result": 54, "unit": "µM"},
      {"measurement": "EC50", "setting": "[8]; curve inflection point", "result": 65.8, "unit": "µM"},
      {"measurement": "IC50", "setting": "[9]; [15]", "result": 0.604, "unit": "µM"},
      {"measurement": "GI50", "setting": "[9]; corrected for time zero", "result": 0.512, "unit": "µM"},
      {"measurement": "EC50", "setting": "[9]; curve inflection point", "result": 0.604, "unit": "µM"},
      {"measurement": "IC50", "setting": "[10]; [15]", "result": 15.8, "unit": "µM"},
      {"measurement": "GI50", "setting": "[10]; corrected for time zero", "result": 14.4, "unit": "µM"},
      {"measurement": "EC50", "setting": "[10]; curve inflection point", "result": 15.8, "unit": "µM"},
      {"measurement": "IC50", "setting": "[11]; [15]", "result": 13.5, "unit": "µM"},
      {"measurement": "GI50", "setting": "[11]; corrected for time zero", "result": 9.81, "unit": "µM"},
      {"measurement": "EC50", "setting": "[11]; curve inflection point", "result": 13.5, "unit": "µM"},
      {"measurement": "IC50", "setting": "[12]; [15]", "result": 33.2, "unit": "µM"},
      {"measurement": "GI50", "setting": "[12]; corrected for time zero", "result": 14.4, "unit": "µM"},
      {"measurement": "EC50", "setting": "[12]; curve inflection point", "result": 28.7, "unit": "µM"},
      {"measurement": "IC50", "setting": "[13]; [15]", "result": 13.4, "unit": "µM"},
      {"measurement": "GI50", "setting": "[13]; corrected for time zero", "result": 12.4, "unit": "µM"},
      {"measurement": "EC50", "setting": "[13]; curve inflection point", "result": 13.4, "unit": "µM"},
      {"measurement": "IC50", "setting": "[14]; [15]", "result": 10.2, "unit": "µM"},
      {"measurement": "GI50", "setting": "[14]; corrected for time zero", "result": 9.28, "unit": "µM"},
      {"measurement": "EC50", "setting": "[14]; curve inflection point", "result": 10.2, "unit": "µM"}
    ]}
  ]
}
